Experimental data reported in patent publication US9872861B2, “Methods of treatment using selective Bcl-2 inhibitors” (AbbVie Inc., priority 2010, dated 2018).
Where two headings read alike, the source gives them in different places. Marks after values point to notes of the source that are not given here.

Legend:
Bcl-XL = Bcl-XL (Homo sapiens, UniProt Q07817); experiment: TR FRET competitive binding affinity, Bcl-XL; conditions: read-out: Target Affinity TR FRET, Bcl-XL
Protocol: (§1) A comparison of the binding affinity for each of the compounds was performed to determine target affinity, as measured by Time-Resolved Fluorescence Resonance Energy Transfer (TR FRET).

Mcl-1 = Mcl-1 (Homo sapiens, UniProt Q07820); experiment: TR FRET competitive binding affinity, Mcl-1; conditions: read-out: Target Affinity TR FRET, Mcl-1
Mcl-1, sequence (Q07820 whole entry): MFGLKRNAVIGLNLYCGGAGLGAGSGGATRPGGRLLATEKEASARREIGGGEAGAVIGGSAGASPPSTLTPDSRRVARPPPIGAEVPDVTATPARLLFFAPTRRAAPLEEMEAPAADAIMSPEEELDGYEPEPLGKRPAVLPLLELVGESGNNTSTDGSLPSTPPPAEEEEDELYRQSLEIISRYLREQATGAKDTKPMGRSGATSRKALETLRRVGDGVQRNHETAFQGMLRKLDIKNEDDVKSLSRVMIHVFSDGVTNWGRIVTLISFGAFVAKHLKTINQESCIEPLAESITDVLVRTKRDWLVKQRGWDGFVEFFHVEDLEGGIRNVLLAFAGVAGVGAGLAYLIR
Protocol: as §1

[1] = system: peripheral blood immune cells; experiment: Peripheral blood lymphocytes in C57BL/6 mice, Cell Dyn hematology analyzer; assay type: in vivo; conditions: for inhibition in vivo at 100 mg/kg: Mus musculus, Lymphocyte
Protocol: The effect of the Bcl-2 selective/Bcl-XL sparing compounds on peripheral blood immune cells was also evaluated in C57BL/6 mice. Mice were treated four days with individual compounds (100 mg/kg, orally every day) and cell numbers were measured with a Cell Dyn hematology analyzer.

H146 cells = experiment: Cellular efficacy in Bcl-XL dependent tumor cell line H146; assay type: cell-based; conditions: Homo sapiens, NCI-H146; 10% HS
RS4;11 cells = experiment: Cellular efficacy in Bcl-2 dependent tumor cell line RS4;11; assay type: cell-based, human; conditions: Homo sapiens, RS4-11; 10% HS
Bcl-w = molecular target: T1, Bcl-w (Homo sapiens, UniProt Q92843); experiment: TR FRET competitive binding affinity, Bcl-w; conditions: read-out: Target Affinity TR FRET, Bcl-w
T1 sequence (Q92843 1-193): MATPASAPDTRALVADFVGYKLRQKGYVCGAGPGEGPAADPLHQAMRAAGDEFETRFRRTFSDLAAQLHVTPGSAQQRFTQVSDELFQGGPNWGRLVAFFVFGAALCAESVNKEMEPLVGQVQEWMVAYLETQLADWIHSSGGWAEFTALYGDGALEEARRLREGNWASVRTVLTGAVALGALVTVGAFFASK
Protocol: as §1

Bcl-2 = Bcl-2 (Homo sapiens, UniProt P10415); experiment: TR FRET competitive binding affinity, Bcl-2; conditions: read-out: Target Affinity TR FRET, Bcl-2
Bcl-2, sequence (P10415 whole entry): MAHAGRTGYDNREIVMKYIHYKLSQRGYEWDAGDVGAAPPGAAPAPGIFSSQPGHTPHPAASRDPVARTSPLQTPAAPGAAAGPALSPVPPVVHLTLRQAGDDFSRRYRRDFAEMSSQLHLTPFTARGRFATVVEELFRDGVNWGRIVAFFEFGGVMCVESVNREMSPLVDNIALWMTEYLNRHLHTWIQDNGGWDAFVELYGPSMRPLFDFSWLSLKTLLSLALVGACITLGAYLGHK
Protocol: as §1

FL5.12-Bcl-XL cells = experiment: Cellular efficacy in FL5.12 cells dependent on Bcl-XL; assay type: cell-based, murine; conditions: Mus musculus, 3% FBS
[2] = system: spontaneous (NZB×NZW)F1 murine model of lupus; experiment: Spontaneous (NZB×NZW)F1 murine model of lupus: proteinuria, survival, lymphopenia; assay type: in vivo, (NZB×NZW)F1 mice
Source text: (See Liu, K. and C. Mohan, What do mouse models teach us about human SLE? Clin Immunol, 2006. 119(2): p. 123-30) This model has been well-characterized with respect to the patho-physiological changes analogous to those of human SLE. […] Renal histopathological changes include severe glomerulonephritis, mesangial and peripheral proliferative changes, capillary membrane thickening, tubular atrophy, and infiltration of lymphocytes and monocytes/macrophages as in the majority of human SLE patients. These changes result in disruption of kidney function as evidenced by severe proteinuria (PU) greater than 300 mg/dL as measured by albumin sticks, followed by mortality as measured by survival. […] (See Gelfand, M. C. and A. D. Steinberg, Therapeutic studies in NZB-W mice. II. Relative efficacy of azathioprine, cyclophosphamide and methylprednisolone. Arthritis Rheum, 1972. 15(3): p. 247-52; and Ramos, M. A., et al., Modulation of autoantibody production by mycophenolate mofetil: effects on the development of SLE in (NZB×NZW)F1 mice. Nephrol Dial Transplant, 2003. 18(5): p. 878-83)
(NZB×NZW)F1 females were purchased from The Jackson Laboratory (Bar Harbor, Me., USA) and maintained in a conventional animal housing facility throughout the experiment. […] Proteinuria (PU) and survival were monitored weekly, followed by biweekly measurement of lymphocyte and platelet counts, and anti-ds DNA production. PK parameters were also measured throughout the study. Impact on IgG deposition and renal pathology were assessed at the conclusion of the study. Severe PU was defined by two consecutive weekly measurements of PU 300 mg/dl using Albustix test strips (VWR). When mice became moribund, they were sacrificed according to Institutional Animal Care and Use Committee protocols. PU and survival data were presented as Kaplan-Meyer survival curves using Graphpad Prism software and group differences were considered significant at the level of p<0.05. Histologic scores were analyzed using ANOVA analysis. Anti-ds DNA were analyzed using one-way ANOVA analysis and Tukey post-test.

FL5.12-Bcl-2 cells = experiment: Cellular efficacy in FL5.12 cells dependent on Bcl-2; assay type: cell-based, murine; conditions: Mus musculus, 3% FBS
[3] = 24 h, 1 oral dose of 100 mg/kg, read-out: Day 1 % Reduction vs. Vehicle
[4] = 96 h, 4 oral doses of 100 mg/kg, read-out: Day 4 % Reduction vs. Vehicle

Bcl-XL, sequence (Q07817 whole entry): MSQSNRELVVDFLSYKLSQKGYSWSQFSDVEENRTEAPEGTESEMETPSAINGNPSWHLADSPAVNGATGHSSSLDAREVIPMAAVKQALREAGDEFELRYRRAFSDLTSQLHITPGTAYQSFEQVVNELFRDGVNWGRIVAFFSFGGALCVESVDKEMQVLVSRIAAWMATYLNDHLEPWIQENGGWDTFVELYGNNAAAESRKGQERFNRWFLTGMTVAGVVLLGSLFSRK

| Ki (Bcl-XL) [nM] | Ki (Mcl-1) [nM] | EC50 (H146 cells) [nM] | EC50 (RS4;11 cells) [nM] | Ki (Bcl-w) [nM] | SMILES | Day 1 Lymphocytes ([1]; 1 oral dose of 100 mg/kg) | Day 4 lymphocytes ([1]; 4 oral doses of 100 mg/kg) | inhibition in vivo at 100 mg/kg [1, 3] [%] | inhibition in vivo at 100 mg/kg [1, 4] [%] | also measured |
| --- | --- | --- | --- | --- | --- | --- | --- | --- | --- | --- |
| 16 | > 440 | 3340 | 4 | 405 | CC1(C)CCC(CN2CCN(c3ccc(C(=O)NS(=O)(=O)c4ccc(NC[C@H]5CC[C@@](C)(O)CC5)c([N+](=O)[O-])c4)c(Oc4cnc5[nH]ccc5c4)c3)CC2)=C(c2ccc(Cl)cc2)C1 [Compound 8, 4-(4-{[2-(4-chlorophenyl)-4,4-dimethylcyclohex-1-en-1-yl]methyl}piperazin-1-yl)-N-[(4-{[(cis-4-hydroxy-4-methylcyclohexyl)methyl]amino}-3-nitrophenyl)sulfonyl]-2-(1H-pyrrolo[2,3-b]pyridin-5-yloxy)benzamide] | 0.92 ×10^6 | 1.02 ×10^6 | 85 | 84 |  |
| 16 | > 440 | 3760 | 2.5 | 227 | CC1(C)CCC(CN2CCN(c3ccc(C(=O)NS(=O)(=O)c4ccc(NC[C@H]5CC[C@](C)(O)CC5)c([N+](=O)[O-])c4)c(Oc4cnc5[nH]ccc5c4)c3)CC2)=C(c2ccc(Cl)cc2)C1 [Compound 9, 4-(4-{[2-(4-chlorophenyl)-4,4-dimethylcyclohex-1-en-1-yl]methyl}piperazin-1-yl)-N-[(4-{[(trans-4-hydroxy-4-methylcyclohexyl)methyl]amino}-3-nitrophenyl)sulfonyl]-2-(1H-pyrrolo[2,3-b]pyridin-5-yloxy)benzamide] | 0.75 ×10^6 | 0.88 ×10^6 | 88 | 86 |  |
| 9 | > 440 | 3160 | 7 | 167 | CC1(C)CCC(CN2CCN(c3ccc(C(=O)NS(=O)(=O)c4cnc(OCC5(F)CCN(C6COC6)CC5)c(Cl)c4)c(Oc4cnc5[nH]ccc5c4)c3)CC2)=C(c2ccc(Cl)cc2)C1 [Compound 13, N-[(5-chloro-6-{[4-fluoro-1-(oxetan-3-yl)piperidin-4-yl]methoxy}pyridin-3-yl)sulfonyl]-4-(4-{[2-(4-chlorophenyl)-4,4-dimethylcyclohex-1-en-1-yl]methyl}piperazin-1-yl)-2-(1H-pyrrolo[2,3-b]pyridin-5-yloxy)benzamide] | 2.32 ×10^6 | 2.61 ×10^6 | 64 | 70 |  |

| SMILES | Ki (Bcl-XL) [nM] | Ki (Mcl-1) [nM] | EC50 (H146 cells) [nM] | EC50 (RS4;11 cells) [nM] | Ki (Bcl-w) [nM] | Day 1 Lymphocytes ([1]; 1 oral dose of 100 mg/kg) | Day 4 lymphocytes ([1]; 4 oral doses of 100 mg/kg) | inhibition in vivo at 100 mg/kg [1, 3] [%] | inhibition in vivo at 100 mg/kg [1, 4] [%] | also measured |
| --- | --- | --- | --- | --- | --- | --- | --- | --- | --- | --- |
| CC1(C)CCC(CN2CCN(c3ccc(C(=O)NS(=O)(=O)c4ccc(N[C@H]5CC[C@H](N6CCOCC6)CC5)c([N+](=O)[O-])c4)c(Oc4cnc(N)c(Cl)c4)c3)CC2)=C(c2ccc(Cl)cc2)C1 [Compound 17, Trans-2-[(6-amino-5-chloropyridin-3-yl)oxy]-4-(4-{[2-(4-chlorophenyl)-4,4-dimethylcyclohex-1-en-1-yl]methyl}piperazin-1-yl)-N-({4-[(4-morpholin-4-ylcyclohexyl)amino]-3-nitrophenyl}sulfonyl)benzamide] | 12 | > 440 | 3240 | 17 | 357 | 1.84 ×10^6 | 1.30 ×10^6 | 77 | 83 | Ki (Bcl-2): < 0.01 nM; EC50 (FL5.12-Bcl-XL cells): 65 nM; % Mice with PU < 300 mg/dL ([2]; Week 39, 1 mg/kg daily oral): 58%; % Survival ([2]; Week 39, 1 mg/kg daily oral): 67%; % Mice with PU < 300 mg/dL ([2]; Week 39, 3 mg/kg daily oral): 67%; % Survival ([2]; Week 39, 3 mg/kg daily oral): 92%; % Mice with PU < 300 mg/dL ([2]; Week 39, 10 mg/kg daily oral): 71%; % Survival ([2]; Week 39, 10 mg/kg daily oral): 93%; % Mice with PU < 300 mg/dL ([2]; Week 39, 30 mg/kg daily oral): 86%; % Survival ([2]; Week 39, 30 mg/kg daily oral): 100%; % Mice with PU < 300 mg/dL ([2]; Week 39, 100 mg/kg daily oral): 100* %; % Survival ([2]; Week 39, 100 mg/kg daily oral): 100%; EC50 (FL5.12-Bcl-2 cells): 4 nM |
